From PubChem BioAssay AID248 (DTP/NCI, 2004)
Where “and” joins values, the source holds several entries; their conditions need not be identical. Equal values may be shown once. Inconclusive results and toxic doses are left out. Cut-off read from the data, not from the text of the source: active = T/C of 150% or more; inactive = T/C below 125%.

System: L1210 leukemia ip in BDF1 mice, survival T/C
Assay: NCI In Vivo Anticancer Drug Screen. Data for tumor model L1210 Leukemia (intraperitoneal) in B6D2F1 (BDF1) mice
Details: endpoint: mean survival time, higher = longer survival
Method in brief: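 In this screen, tumor-bearing mice given compound are compared to those given vehicle, and their survival values are reported as a treated-to-control quotient.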

[1] = dose: 100.0 mg/kg/injection, schedule: Q04DX003 (ip), vehicle: Klucel (hydroxypropylcellulose) (HPC)
[2] = dose: 200.0 mg/kg/injection, schedule: Q04DX003 (ip), vehicle: Klucel (hydroxypropylcellulose) (HPC)
[3] = dose: 400.0 mg/kg/injection, schedule: Q04DX003 (ip), vehicle: Klucel (hydroxypropylcellulose) (HPC)
[4] = dose: 100.0 mg/kg/injection, schedule: Q01DX001 (ip), vehicle: saline
[5] = dose: 200.0 mg/kg/injection, schedule: Q01DX001 (ip), vehicle: saline
[6] = dose: 100.0 mg/kg/injection, schedule: Q01DX009 (ip), vehicle: Klucel (hydroxypropylcellulose) (HPC)
[7] = dose: 100.0 mg/kg/injection, schedule: Q04DX003 (ip), vehicle: saline with Tween-80
[8] = dose: 200.0 mg/kg/injection, schedule: Q04DX003 (ip), vehicle: saline with Tween-80
[9] = dose: 400.0 mg/kg/injection, schedule: Q04DX003 (ip), vehicle: saline with Tween-80
[10] = dose: 6.25 mg/kg/injection, schedule: Q01DX009 (ip), vehicle: saline
[11] = dose: 12.5 mg/kg/injection, schedule: Q01DX009 (ip), vehicle: saline
[12] = dose: 25.0 mg/kg/injection, schedule: Q01DX009 (ip), vehicle: saline

Measured: T/C

CCCCCn1c(Cl)c(C(=O)O)c2ccccc21
inactive: dose: 25.0 mg/kg/injection, schedule: Q04DX003 (ip), vehicle: Klucel (hydroxypropylcellulose) (HPC) 109 % of control | dose: 50.0 mg/kg/injection, schedule: Q04DX003 (ip), vehicle: Klucel (hydroxypropylcellulose) (HPC) 97 % of control | [1] 102 % of control

CCOC(=O)CCC(NC(=O)c1c(Cl)cc(N(C)S(=O)(=O)c2ccc(C)cc2)cc1Cl)C(=O)OCC (stereo not given)
inactive: [1] 105 % of control | [2] 97 % of control | [3] 97 % of control

O=C(O)CCCCCCCCCCCCCCC(=O)O
inactive: dose: 100.0 mg/kg/injection, schedule: Q04DX002 (ip), vehicle: Klucel (hydroxypropylcellulose) (HPC) 93 % of control and 97 % of control | dose: 200.0 mg/kg/injection, schedule: Q04DX002 (ip), vehicle: Klucel (hydroxypropylcellulose) (HPC) 101 % of control | dose: 400.0 mg/kg/injection, schedule: Q04DX002 (ip), vehicle: Klucel (hydroxypropylcellulose) (HPC) 93 % of control and 101 % of control

CCOC(=O)/C=C/c1cccc([N+](=O)[O-])c1
inactive: [1] 98 % of control | [2] 91 % of control | [3] 101 % of control

c1ccn2nnc(-c3nnn4ccccc34)c2c1
inactive: dose: 100.0 mg/kg/injection, schedule: Q04DX002 (ip), vehicle: saline with Tween-80 102 % of control | dose: 200.0 mg/kg/injection, schedule: Q04DX002 (ip), vehicle: saline with Tween-80 95 % of control | dose: 400.0 mg/kg/injection, schedule: Q04DX002 (ip), vehicle: saline with Tween-80 91 % of control

CCCCCCCNC1=C(C)C(=O)C(NCCCCCCC)=C(C)C1=O
inactive: dose: 100.0 mg/kg/injection, schedule: Q01DX001 (ip), vehicle: carboxymethylcellulose (CMC) 96 % of control | [4] 93 % of control | dose: 200.0 mg/kg/injection, schedule: Q01DX001 (ip), vehicle: carboxymethylcellulose (CMC) 96 % of control | [5] 96 % of control | dose: 400.0 mg/kg/injection, schedule: Q01DX001 (ip), vehicle: carboxymethylcellulose (CMC) 89 % of control | dose: 400.0 mg/kg/injection, schedule: Q01DX001 (ip), vehicle: saline 93 % of control

CCCCCCCCCCC[n+]1cccc(C#N)c1
inactive: dose: 5.0 mg/kg/injection, schedule: Q01DX009 (ip), vehicle: saline 101 % of control | dose: 10.0 mg/kg/injection, schedule: Q01DX001 (ip), vehicle: saline 94 % of control | dose: 10.0 mg/kg/injection, schedule: Q01DX009 (ip), vehicle: saline 93 % of control | dose: 10.0 mg/kg/injection, schedule: Q04DX003 (ip), vehicle: saline 98 % of control | dose: 20.0 mg/kg/injection, schedule: Q01DX001 (ip), vehicle: saline 101 % of control | dose: 20.0 mg/kg/injection, schedule: Q01DX009 (ip), vehicle: saline 95 % of control | dose: 20.0 mg/kg/injection, schedule: Q04DX003 (ip), vehicle: saline 93 % of control | dose: 40.0 mg/kg/injection, schedule: Q01DX001 (ip), vehicle: saline 108 % of control | dose: 40.0 mg/kg/injection, schedule: Q04DX003 (ip), vehicle: saline 95 % of control

CCC(=O)O[C@H]1CC[C@H]2[C@@H]3CC[C@H]4CC(=O)[C@H](C)C[C@]4(C)[C@H]3CC[C@]12C
inactive: dose: 44.13 mg/kg/injection, schedule: Q01DX Z (sc), vehicle: steriod suspending solution 96 % of control | dose: 88.25 mg/kg/injection, schedule: Q01DX Z (sc), vehicle: steriod suspending solution 104 % of control | dose: 176.5 mg/kg/injection, schedule: Q01DX Z (sc), vehicle: steriod suspending solution 103 % of control | dose: 353.0 mg/kg/injection, schedule: Q01DX Z (sc), vehicle: steriod suspending solution 100 % of control

CCOC(=O)C(C(=O)OCC)N(CC)CC
inactive: [6] 96 % of control | [1] 98 % of control | [2] 93 % of control | dose: 400.0 mg/kg/injection, schedule: Q01DX009 (ip), vehicle: Klucel (hydroxypropylcellulose) (HPC) 95 % of control | [3] 109 % of control

CN1COC(OC(C)(C)C)C(C)(C)C1 (stereo not given)
inactive: dose: 100.0 mg/kg/injection, schedule: Q01DX001 (ip), vehicle: saline sonified 90 % of control | dose: 400.0 mg/kg/injection, schedule: Q01DX001 (ip), vehicle: saline sonified 95 % of control

CCOCc1cccc2ccccc12
inactive: [7] 106 % of control | [8] 98 % of control | [9] 102 % of control

O=CN(O)CC(=O)O.[Zn]
inactive: [10] 105 % of control | [11] 100 % of control | [12] 120 % of control

ClCC[n+]1ccccc1
inactive: dose: 75.0 mg/kg/injection, schedule: Q01DX001 (ip), vehicle: saline 104 % of control | dose: 150.0 mg/kg/injection, schedule: Q01DX001 (ip), vehicle: saline 101 % of control

O=C1C(Br)=C(N2CC2)C(=O)C(Br)=C1N1CC1
inactive: dose: 1.56 mg/kg/injection, schedule: Q04DX003 (ip), vehicle: saline 104 % of control | dose: 3.12 mg/kg/injection, schedule: Q04DX003 (ip), vehicle: saline 109 % of control | dose: 6.25 mg/kg/injection, schedule: Q04DX003 (ip), vehicle: saline 104 % of control | dose: 12.5 mg/kg/injection, schedule: Q04DX003 (ip), vehicle: saline 106 % of control | dose: 25.0 mg/kg/injection, schedule: Q04DX003 (ip), vehicle: saline 104 % of control | dose: 50.0 mg/kg/injection, schedule: Q04DX003 (ip), vehicle: saline 103 % of control

Cc1c2cc3c(c1O)C(=O)CC(O3)c1ccc(O)c(c1)-c1cccc(c1O)C(=O)OCC1OC(O2)C(O)C(O)C1O (stereo not given)
inactive: dose: 0.13 mg/kg/injection, schedule: Q01DX009 (ip), vehicle: Klucel (hydroxypropylcellulose) (HPC) 104 % of control | dose: 0.25 mg/kg/injection, schedule: Q01DX009 (ip), vehicle: Klucel (hydroxypropylcellulose) (HPC) 97 % of control | dose: 0.5 mg/kg/injection, schedule: Q01DX009 (ip), vehicle: Klucel (hydroxypropylcellulose) (HPC) 98 % of control | dose: 1.0 mg/kg/injection, schedule: Q01DX009 (ip), vehicle: Klucel (hydroxypropylcellulose) (HPC) 103 % of control

CN(C)C(C#N)C(=O)c1ccc(Cl)cc1 (stereo not given)
inactive: [4] 91 % of control | [5] 95 % of control

CC(C)COC(=O)COc1ccccc1
inactive: [7] 104 % of control | [8] 104 % of control | [9] 86 % of control

O=[N+]([O-])c1ccc(OCc2ccc(S(=O)(=O)F)cc2Cl)c(Cl)c1
inactive: dose: 100.0 mg/kg/injection, schedule: Q04DX003 (ip), vehicle: gum acacia 98 % of control | dose: 200.0 mg/kg/injection, schedule: Q04DX003 (ip), vehicle: gum acacia 95 % of control | dose: 400.0 mg/kg/injection, schedule: Q04DX003 (ip), vehicle: gum acacia 97 % of control

O=C1CCN(Cc2ccco2)C(=S)N1
inactive: dose: 25.0 mg/kg/injection, schedule: Q01DX Z (ip), vehicle: methylcellulose (MC) 101 % of control | dose: 50.0 mg/kg/injection, schedule: Q01DX Z (ip), vehicle: methylcellulose (MC) 97 % of control

CN(C)C=Nc1ccc(Cl)cc1
inactive: dose: 25.0 mg/kg/injection, schedule: Q01DX001 (ip), vehicle: other 93 % of control | dose: 50.0 mg/kg/injection, schedule: Q01DX001 (ip), vehicle: other 101 % of control | dose: 50.0 mg/kg/injection, schedule: Q01DX001 (ip), vehicle: saline 100 % of control | dose: 50.0 mg/kg/injection, schedule: Q04DX003 (ip), vehicle: other 90 % of control | dose: 100.0 mg/kg/injection, schedule: Q01DX001 (ip), vehicle: other 103 % of control and 91 % of control | dose: 100.0 mg/kg/injection, schedule: Q04DX003 (ip), vehicle: other 102 % of control | dose: 200.0 mg/kg/injection, schedule: Q04DX003 (ip), vehicle: other 101 % of control

C=CCSc1nccc(=O)[nH]1
inactive: [6] 110 % of control | dose: 200.0 mg/kg/injection, schedule: Q01DX009 (ip), vehicle: Klucel (hydroxypropylcellulose) (HPC) 96 % of control

O=C(C=C(C(F)(F)F)C(F)(F)F)c1cccc(Cl)c1
inactive: [10] 100 % of control | dose: 6.25 mg/kg/injection, schedule: Q04DX003 (ip), vehicle: saline with Tween-80 96 % of control | [11] 100 % of control | dose: 12.5 mg/kg/injection, schedule: Q04DX003 (ip), vehicle: saline with Tween-80 107 % of control | [12] 97 % of control | dose: 25.0 mg/kg/injection, schedule: Q04DX003 (ip), vehicle: saline with Tween-80 100 % of control | dose: 50.0 mg/kg/injection, schedule: Q04DX003 (ip), vehicle: saline with Tween-80 100 % of control
